Like-named read-outs stand apart in the source and are kept apart here.
Tests used:
[1] = system: HIV clinical strains; details: background statement; read-out: EC50 against broad HIV clinical strains; cited from earlier work
[2] = system: A549 cells; details: human, 2 days
[3] = system: HIV; experiment: microbe, parasite or virus in culture; assay type: cell-based, HIV-1
[4] = system: A549 cells; experiment: Cytotoxicity evaluation using the SRB assay; details: Table 1; inhibition of cell growth of host A549 cells by 50%; triplicate

SMILES | EC50 [1] | CC50 [2] | EC50 [3] | CC50 [4] | EC50 ([3]; read-out: EC50)
Cc1cn([C@H]2C[C@H](N=[N+]=[N-])[C@@H](CO)O2)c(=O)[nH]c1=O [Zidovudine (AZT), Zidovudine] | 0.077 to 0.095 µM |  |  |  | 
COc1cc2c(OC3OCC(O)(CO)C3O)c3c(c(-c4cc5c(cc4O)OCO5)c2cc1OC)C(=O)OC3 (single isomer, unassigned) [Compound 46] |  | > 50 µM | 48.6 µM |  | 
COc1cc2c(O[C@@H]3OC[C@](O)(CO)[C@H]3O)c3c(c(-c4ccc5c(c4)OCO5)c2cc1OC)C(=O)OC3 [Tuberculatin (1), tuberculatin] |  |  |  | 3.27 µM | 0.22 µM
COc1cc2c(OC3OCC(O)(COC4OCC(O)C(O)C4O)C3OC3OCC(O)C(O)C3O)c3c(c(-c4cc5c(cc4O)OCO5)c2cc1OC)C(=O)OC3 (single isomer, unassigned) [Compound 52] |  |  | > 25 µM | > 25 µM | 
COc1cc2c(OC3OCC(O)(CO)C3O)c3c(c(-c4cc5c(cc4O)OCO5)c2cc1OC)C(=O)OC3 (single isomer, unassigned) [Compound 47] |  | > 25 µM | > 25 µM |  | 
COc1cc2c(OC3OCC(O)(CO)C3OC3OCC(O)C(O)C3O)c3c(c(-c4cc5c(cc4O)OCO5)c2cc1OC)C(=O)OC3 (single isomer, unassigned) [Compound 50] |  | > 25 µM | 23.1 µM |  | 

Reference: patent US20240076299A1, “TUBERCULATIN ANALOGS AS ANTIVIRAL AGENTS” (priority 2020, published 2024)
